Where a name gives a salt, the structure may show the parent alone.
Row | SMILES | melting point
1 | COc1cc(N2CCN([C@H]3CC[C@@H](c4cn(C)c5ccc(C#N)cc54)CC3)CC2)c2nc(C)ccc2c1 [Example 51a, (cis)-3-{4-[4-(6-Methoxy-2-methylquinolin-8-yl)piperazin-1-yl]cyclohexyl}-1-methyl-1H-indole-5-carbonitrile] | 201 to 203 °C
2 | COc1ccccc1N1CCN([C@H]2CC[C@@H](c3c[nH]c4ncccc43)CC2)CC1 (as salt: HCl) [Example 21, 3-{(1,4-cis)-4-[4-(2-Methoxy-phenyl)-piperazin-1-yl]-cyclohexyl}-1H-pyrrolo[2,3-b]pyridine] | 259 to 261 °C
3 | CN(C)C(=O)c1cc(N2CCN([C@H]3CC[C@H](c4cn(C)c5ccc(C#N)cc54)CC3)CC2)c2ncccc2c1 [Example 77b, 8-[4-[(trans)-4-(5-Cyano-1-methyl-1H-indol-3-yl)cyclohexyl]-1-piperazinyl]-N,N-dimethyl-6-quinolincarboxamide] | 160 to 163 °C
4 | Cn1cc([C@H]2CC[C@@H](N3CCN(c4cc(C=O)cc5cccnc45)CC3)CC2)c2cc(C#N)ccc21 (as salt: oxalate) [Example 71, 8-[4-[(cis)-4-(5-Cyano-1-methyl-1H-indole-3-yl)-cyclohexyl]-piperazin-1-yl]-6-quinolinecarbaldehyde] | 172 to 174 °C
5 | N#Cc1ccc2[nH]cc([C@H]3CC[C@H](N4CCN(c5cccc6[nH]ccc56)CC4)CC3)c2c1 (as salt: HCl) [Example 7b, 3-{4-[(1,4-trans)-4-(1H-Indol-4-yl)-piperazinyl-1-yl]cyclohexyl}-1H-indole-5-carbonitrile] | > 310 °C
6 | CC(C)n1cc([C@H]2CC[C@@H](N3CCN(c4cccc5[nH]ccc45)CC3)CC2)c2cc(C#N)ccc21 (as salt: HCl) (hydrate or solvate) [Example 15a, 3-{(1,4-cis)-4-[4-(1H-indol-4-yl)-piperazin-1-yl]-cyclohexyl}-1-isopropyl-1H-indole-5-carbonitrile] | 285 to 286 °C
7 | N#Cc1ccc2[nH]cc([C@H]3CC[C@H](N4CCN(c5cc(F)cc6c5OCC6)CC4)CC3)c2c1 (as salt: HCl) (hydrate or solvate) [Example 33b, 3-{(1,4-trans)-4-[4-(5-Fluoro-2,3-dihydro-benzofuran-7-yl)-piperazin-1-yl]-cyclohexyl}-1H-indole-5-carbonitrile] | 330 to 331 °C
8 | COc1cc(N2CCN([C@H]3CC[C@@H](c4cn(C)c5cc(F)ccc54)CC3)CC2)c2ncccc2c1 [Example 81, 8-{cis-4-[4-(6-Fluoro-1-methyl-1H-indol-3-yl)cyclohexyl]-1-piperazinyl}-6-methoxyquinoline] | 219 to 223 °C
9 | COc1cc(N2CCN([C@H]3CC[C@H](c4cn(C)c5ccc(C#N)cc54)CC3)CC2)c2nccc(C)c2c1 [Example 51d, (trans)-3-{4-[4-(6-Methoxy-4-methylquinolin-8-yl)piperazin-1-yl]cyclohexyl}-1-methyl-1H-indole-5-carbonitrile] | 230 to 232 °C
10 | COc1cc(N2CCN([C@H]3CC[C@H](c4cn(C)c5ccc(C#N)cc54)CC3)CC2)c2nccnc2c1 [Example 65b, (trans)-3-{4-[4-(7-Methoxyquinoxalin-5-yl)piperazin-1-yl]cyclohexyl}-1-methyl-1H-indole-5-carbonitrile] | 230 to 233 °C
11 | COc1cc2cccnc2c(N2CCN([C@H]3CC[C@@H](c4cn(C)c5ccc(C#N)cc54)CC3)CC2)n1 (as salt: salt) [Example 66a, (cis)-3-{4-[4-(6-Methoxy[1,7]naphthyridin-8-yl)piperazin-1-yl]cyclohexyl}-1-methyl-1H-indole-5-carbonitrile] | 235 to 238 °C
12 | N#Cc1ccc2[nH]cc([C@H]3CC[C@H](N4CCN(c5cccc6c5OCCO6)CC4)CC3)c2c1 (as salt: HCl) [Example 26b, 3-{(1,4-trans)-4-[4-(2,3-Dihydro-benzo[1,4]dioxin-5-yl)-piperazin-1-yl]-cyclohexyl}-1H-indole-5-carbonitrile] | 300 °C (dec.)
13 | COc1cc(N2CCN([C@H]3CC[C@@H](c4cn(C)c5ccc(C#N)cc54)CC3)CC2)c2ncccc2c1C [Example 52a, (cis)-3-{4-[4-(6-Methoxy-5-methylquinolin-8-yl)piperazin-1-yl]cyclohexyl}-1-methyl-1H-indole-5-carbonitrile] | 227 to 228 °C
14 | COc1ccccc1C1CCN([C@H]2CC[C@@H](c3c[nH]c4ccc(F)cc43)CC2)CC1 (as salt: HCl) [Example 19a, 5-Fluoro-3-{(1,4-cis)-4-[4-(2-methoxy-phenyl)-piperidin-1-yl]-cyclohexyl}-1H-indole] | 245 to 250 °C
15 | COc1cc(N2CCN([C@H]3CC[C@H](c4cn(C)c5ccc(C#N)cc54)CC3)CC2)c2ncccc2c1C [Example 52b, (trans)-3-{4-[4-(6-Methoxy-5-methylquinolin-8-yl)piperazin-1-yl]cyclohexyl}-1-methyl-1H-indole-5-carbonitrile] | 212 to 213 °C
16 | COc1ccc2[nH]cc([C@H]3CC[C@@H](N4CCN(c5ccccc5OC)CC4)CC3)c2c1 (as salt: HCl) [Example 20a, 5-Methoxy-3-{(1,4-cis)-4-[4-(2-methoxy-phenyl)-piperazin-1-yl]-cyclohexyl}-1H-indole] | 198 to 199 °C
17 | N#Cc1ccc2[nH]cc([C@H]3CC[C@H](N4CCN(c5cccc6ccoc56)CC4)CC3)c2c1 (as salt: HCl) (hydrate or solvate) [Example 34b] | 330 to 331 °C
18 | COc1cc(N2CCN([C@H]3CC[C@@H](c4cn(C)c5ccc(C#N)cc54)CC3)CC2)c2nccc(C)c2c1 [Example 51c, (cis)-3-{4-[4-(6-Methoxy-4-methylquinolin-8-yl)piperazin-1-yl]cyclohexyl}-1-methyl-1H-indole-5-carbonitrile] | 210 to 212 °C

Results, then the compound that gave them:

Row | melting point | SMILES
19 | 200 to 203 °C | COc1ccc2cc(N3CCN(C4CCC(c5c[nH]c6ccc(F)cc56)CC4)CC3)ccc2c1 (centres unmarked) (as salt: oxalate) [Example 69, 5-Fluoro-3-{4-[4-(6-Methoxy-naphthalen-2-yl)-piperazin-1-yl]-cyclohexyl}-1H-indole]
20 | 276 °C | Brc1ccc2[nH]cc([C@H]3CC[C@@H](N4CCN(c5cccc6[nH]ccc56)CC4)CC3)c2c1 (as salt: HCl) [Example 5a, 5-Bromo-3-[cis-4-[4-(1H-indol-4-yl)-1-piperazinyl]cyclohexyl]-1H-indole]
21 | > 210 °C | COc1cc(N2CCN([C@H]3CC[C@H](c4c[nH]c5ccc(C#N)cc54)CC3)CC2)c2cc[nH]c2c1 (as salt: HCl) [Example 68b, 3-[trans-4-[4-(6-Methoxy-1H-indole-4-yl)-1-piperazinyl]cyclohexyl]1H-indole-5-carbonitrile]
22 | 171 to 174 °C | COc1ccc(F)cc1N1CCN([C@H]2CC[C@@H](c3c[nH]c4ccc(F)cc43)CC2)CC1 (as salt: HCl) [Example 22a, 5-Fluoro-3-{(cis)-4-[4-(5-fluoro-2-methoxy-phenyl)-piperazin-1-yl]-cyclohexyl}-1H-indole]
23 | 170 to 172 °C | COc1ccccc1N1CCN([C@H]2CC[C@@H](c3c[nH]c4ccc(F)cc43)CC2)CC1 (as salt: HCl) [Example 18, 5-Fluoro-3-{(cis)-4-[4-(2-methoxy-phenyl)-piperazin-1-yl]-cyclohexyl}-1H-indole]
24 | 283 to 285 °C | Fc1cccc2[nH]cc([C@H]3CC[C@@H](N4CCN(c5cccc6[nH]ccc56)CC4)CC3)c12 (as salt: HCl) (hydrate or solvate) [Example 2a, 4-Fluoro-3-[cis-4-[4-(1H-indol-4-yl)-1-piperazinyl]cyclohexyl]-1H-indole]
25 | 272 to 273.5 °C | COc1ccc(F)cc1N1CCN([C@H]2CC[C@H](c3c[nH]c4ccc(F)cc43)CC2)CC1 (as salt: HCl) [Example 22b, 5-Fluoro-3-{(trans)-4-[4-(5-fluoro-2-methoxy-phenyl)-piperazin-1-yl]-cyclohexyl}-1H-indole]
26 | 285.5 to 288 °C | Cn1cc([C@H]2CC[C@@H](N3CCN(c4cccc5[nH]ccc45)CC3)CC2)c2cc(C#N)ccc21 (as salt: HCl) (hydrate or solvate) [Example 12a, 3-{(1,4-cis)-4-[4-(1H-indol-4-yl)-piperazin-1-yl]-cyclohexyl}-1-methyl-1H-indole-5-carbonitrile]
27 | 283 to 285 °C | Clc1ccc2[nH]cc([C@H]3CC[C@@H](N4CCN(c5cccc6[nH]ccc56)CC4)CC3)c2c1 (as salt: HCl) (hydrate or solvate) [Example 6a, 5-Chloro-3-[cis-4-[4-(1H-indol-4-yl)-1-piperazinyl]cyclohexyl]-1H-indole]
28 | 253 to 254 °C | Cn1ccc2c(N3CCN([C@H]4CC[C@@H](c5cn(C)c6cc(F)ccc65)CC4)CC3)cccc21 (as salt: HCl) (hydrate or solvate) [Example 11, 6-Fluoro-1-methyl-3-{cis-4-[4-(1-methyl-1H-indol-4-yl)-1-piperazinyl]cyclohexyl}-1H-indole]
29 | 198 to 200 °C | c1cc(N2CCN([C@H]3CC[C@@H](c4c[nH]c5ccccc54)CC3)CC2)c2cc[nH]c2c1 (as salt: HCl) [Example 1a, 3-[cis-4-[4-(1H-Indol-4-yl)-1-piperazinyl]cyclohexyl]-1H-indole]
30 | > 310 °C | Cc1[nH]c2ccccc2c1[C@H]1CC[C@H](N2CCN(c3cccc4[nH]ccc34)CC2)CC1 (as salt: HCl) [Example 9b, 3-[trans-4-[4-(1H-Indol-4-yl)-1-piperazinyl]cyclohexyl]-2-methyl-1H-indole]
31 | > 300 °C | Brc1ccc2[nH]cc([C@H]3CC[C@H](N4CCN(c5cccc6[nH]ccc56)CC4)CC3)c2c1 (as salt: HCl) [Example 5b, 5-Bromo-3-[trans-4-[4-(1H-indol-4-yl)-1-piperazinyl]cyclohexyl]-1H-indole]
32 | 283 to 285 °C | COc1ccc2[nH]cc([C@H]3CC[C@@H](N4CCN(c5cccc6[nH]ccc56)CC4)CC3)c2c1 (as salt: HCl) (hydrate or solvate) [Example 8a, 5-Methoxy-3-[cis-4-[4-(1H-indol-4-yl)-1-piperazinyl]cyclohexyl]-1H-indole]

Reference: patent US6465482B2, “Arylpiperazinyl-cyclohexyl indole derivatives for the treatment of depression” (Wyeth, priority 1999, dated 2002)
